Test results reported in patent US20220332799A1, “HERV INHIBITORS FOR USE IN TREATING TAUOPATHIES” (Deutsches Zentrum Für Neurodegenerative Erkrankungen E.V. …, priority 2019, published 2022).

Columns and labels:
N2a NM-GFP^sol cells = experiment: NM-GFP aggregate induction in recipient cells by EVs from donor clone N2a NM-HA^agg s2E; type: cell-based, mouse; conditions: EVs isolated from donors treated with 10 μM for 3 days; no drug on recipients, 16 h
Method: To prepare EV-depleted medium, FCS was ultracentrifuged at 100,000×g for 20 h at 4° C. Medium supplemented with the EV-depleted FCS and antibiotics was subsequently filtered through […] and a 0.1 μM filter-sterilization devices (Millipore). For EV isolation, 2-4×10^6 cells were seeded in T175 flasks in 35 ml EV-depleted medium to reach confluence after 3 days. Cells and cell debris were pelleted by differential centrifugation (300×g, 10 min; 2,000×g, 20 min; 16,000×g, 30 min, 4° C.). The remaining supernatant (conditioned medium) was subjected to ultracentrifugation at 100,000×g for 1 h at 4° C. using rotors Ti45 or SW32Ti (Beckman Coulter). The pellet was rinsed in PBS and spun again using rotor SW55Ti at 100,000×g for 1 h at 4° C.
Recipient cells were cultured on CellCarrier-96 plates or 384 black microplates (PerkinElmer) at appropriate cell numbers for 1 h, and then treated with 5-10 μl of prepared samples (isolated EVs or recombinant NM fibrils). […] On average, a total of 3-4×10^4 cells per well and at least 3 wells per treatment were analyzed.
The treatment of cells with Amprenavir (10 μM; Santa Cruz) and DMSO was performed for 72 h in EV-depleted medium in T175 flasks. Afterwards, the total numbers of viable cells and the viability upon drug treatment were determined using the Vi-VELL™ XR Cell Viability Analyzer (Beckman Coulter). […]

MuERV Env and Gag = type: cell-based, mouse; conditions: s2E P1 donors; Aza 200 nM or Dec 100 nM, then 5 days without drug; vs DMSO
Method: To inhibit methyltransferases, s2E P1 donor cells were treated for three days with methyltransferase inhibitors 5-Azacytidine (Aza) 200 nM, Decitabine (Dec) 100 nM or DMSO as solvent control. Subsequently, the cells were cultured in the absence of the drugs for 5 days. Pre-treated donor cells were subsequently cocultured with recipient cells as described above to monitor aggregate induction efficiency in recipient N2a NM-GFP^sol cells. Cell lysates of donor cells were also analyzed for MuERV Env and Gag expression levels by western blot. To increase DNA methylation, the s2E donor clone (P21) was treated with methyl group donors L-methionine (L-M) 80 mM, Betaine (B) 80 mM, Choline chloride (CC) 20 mM or medium control for 6 days. MuERV Env and Gag protein levels were analyzed by western blot. Subsequently, cells were cocultured with recipient cells for 16 h. The percentage of aggregate containing recipient cells was compared to the percentage of aggregate bearing recipients cocultured with solvent-treated donors.
Pre-designed siRNAs against murine XPR1 and mCat-1 genes were used to knock-down genes coding for putative receptors. For transfection, 2-4×10^5 cells/well were seeded on 6 well plates. The next day, 30 nM siRNA or plasmid DNA was transfected using Lipofectamine RNAiMAX or Lipofectamine2000 transfection reagent, respectively, according to the manufacturer's instructions (Thermo Fisher Scientific). After 2 days, transfected cells were harvested for aggregate induction assays and qRT-PCR, western blot analysis.
For Western blot analysis, protein concentrations were measured using the Quick Start™ Bradford Protein assay (Bio-Rad). Proteins were separated on NuPAGE®Novex® 4-12 Bis-Tris Protein Gels (Life Technologies) followed by transfer onto a PVDF membrane (GE Healthcare). Western blot analysis was performed using rat hybridoma anti-MuERV Env mAb83A25; anti-xenotropic MuLV virus antibody ABIN457298 for detecting both Env and Gag (antibodies-online); mouse anti-MuERV Gag ab100970 (Abcam); mouse anti-Alix (1:1000; BD Bioscience); rat anti-HA 3F10 (1:1000; Roche); mouse anti-GAPDH 6C5 (1:5000; Abcam); mouse anti-Hsc/Hsp70 N27F3-4 (1:1000; ENZO); mouse anti-VSV-G A5977 (Sigma); rabbit anti-Tau ab64193 (Abcam); mouse anti-HERV K Env HERM-1811-5 (Amsbio); mouse anti-HERV K Gag HERM-1841-5 (Amsbio). The membrane was incubated with Pierce™ ECL Western Blotting Substrate (Thermo Fisher Scientific) according to the manufacturer's recommendations.

Compound	EV-mediated aggregate induction in recipient cells (N2a NM-GFP^sol cells)	expression of MuERV proteins (MuERV Env and Gag)
CC(C)CN(C[C@@H](O)[C@H](Cc1ccccc1)NC(=O)O[C@H]1CCOC1)S(=O)(=O)c1ccc(N)cc1 [Amprenavir]	basically abolished EV-mediated aggregate induction in recipient cells	–
Nc1ncn([C@H]2C[C@H](O)[C@@H](CO)O2)c(=O)n1 [Decitabine, 5-aza-2′-deoxycytidine]	–	increased expression
